Patent US11207312B2, “Metallo-beta-lactamase inhibitors and methods of use thereof” (priority 2017, dated 2021)

Legend:
NDM-1 = NDM-1 (Klebsiella pneumoniae, UniProt C7C422); assay: biochemical; assay type: biochemical; details: CCF2-FA fluorescence assay, 2 hours at 25° C.
Outline: (§1)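 Enzyme (NDM-1 1 pM, IMP-1 2 pM, VIM-1 30 pM final) and 1.25 μM CCF2-FA incubated with inhibitor (20 to 0.00063 μM) for 2 h at 25° C in 100 mM KH2PO4 pH 7, 0.005% Tween-20, 10 μM ZnSO4. Fluorescence read at ex 405/em 460 nm; IC50 by 4-parameter fit.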

IMP-1 = IMP-1 (Serratia marcescens, UniProt P52699); assay: biochemical; details: CCF2-FA fluorescence assay, 2 hours at 25° C.; read-out: IMP1 IC50
Outline: as §1

VIM-1 = VIM-1 (Pseudomonas aeruginosa (strain ATCC 15692 / DSM 22644 / CIP 104116 / JCM 14847 / LMG 12228 / 1C / PRS 101 / PAO1), UniProt A0A0F7KYQ8); assay: biochemical; details: CCF2-FA fluorescence assay, 2 hours at 25° C.; read-out: VIM1 IC50
Outline: as §1

VIM-2 = VIM-2 (Escherichia coli, UniProt Q5U7L7); assay: biochemical; details: CCF2-FA fluorescence assay; read-out: VIM2 IC50
[1] = system: Escherichia coli expressing NDM-1 (CLB30016); assay type: cell-based; details: with imipenem 1 μg/ml; 95% inhibition of bacterial growth
Outline: (§2)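 Each strain, diluted 1:100 from saline suspension into 1.1× CAMHB, was combined with imipenem held at 1 μg/ml and graded inhibitor. Growth after 22–24 h at 35 °C was measured by absorbance, and the lowest concentration achieving 95% inhibition defined MITC95.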

[2] = system: Klebsiella pneumoniae expressing VIM-1 (IHMA599644); assay type: cell-based; details: with imipenem 1 μg/ml; 95% inhibition of bacterial growth
Outline: as §2

[3] = system: Serratia marcescens expressing IMP-1 (CL5741); assay type: cell-based; details: with imipenem 1 μg/ml; 95% inhibition of bacterial growth
Outline: as §2

[4] = system: P. aeruginosa MB9798 (efflux+, IMP-1 plasmid); details: for MB9798 MITC95 P. aeruginosa uM Efflux WT: efflux + (MB9798) strain, imipenem at 2 μg/mL, in the presence of a class A, C, D serine β-lactamase inhibitor closely related to relebactam; for Efflux ratio: fold difference between efflux+ (MB9798) and efflux− (MB9799) strains
Outline: (§3)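 PAO1-derived isogenic pair (oprD+, inducible AmpC), efflux+ MB5919 or efflux− MB5890 parent, carrying an electroporated IMP-1 plasmid from a clinical isolate. Microbroth MIC with fixed imipenem and/or ceftazidime (usually CLSI breakpoint) plus fixed class A/C inhibitor; MBL inhibitor serially titrated, concentration restoring susceptibility recorded.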

[5] = system: P. aeruginosa MB9799 (efflux-, IMP-1 plasmid); assay type: cell-based, Pseudomonas aeruginosa; details: efflux − (MB9799) strain; imipenem at 2 μg/mL; in the presence of a class A, C, D serine β-lactamase inhibitor closely related to relebactam
Outline: as §3

Sequence of IMP-1 (P52699 whole entry, looked up, species assumed): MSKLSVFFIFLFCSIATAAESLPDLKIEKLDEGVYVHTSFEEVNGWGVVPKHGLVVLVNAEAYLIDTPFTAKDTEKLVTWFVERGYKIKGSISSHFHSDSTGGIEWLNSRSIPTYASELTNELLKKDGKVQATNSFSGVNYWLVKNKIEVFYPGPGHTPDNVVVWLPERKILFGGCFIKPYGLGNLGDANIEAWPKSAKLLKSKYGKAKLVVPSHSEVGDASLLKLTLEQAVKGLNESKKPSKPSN
Sequence of NDM-1 (C7C422 whole entry, looked up, species assumed): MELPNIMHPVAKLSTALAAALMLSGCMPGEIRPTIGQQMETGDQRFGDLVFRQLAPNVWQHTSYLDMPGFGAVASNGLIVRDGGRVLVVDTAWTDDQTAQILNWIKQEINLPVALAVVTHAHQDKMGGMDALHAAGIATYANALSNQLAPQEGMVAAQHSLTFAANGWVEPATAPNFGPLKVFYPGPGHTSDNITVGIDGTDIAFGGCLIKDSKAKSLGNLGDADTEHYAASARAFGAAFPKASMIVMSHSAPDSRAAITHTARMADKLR

Row | Structure (SMILES) | IC50 (NDM-1) [nM] | IC50 (IMP-1) [nM] | IC50 (VIM-1) [nM] | IC50 (VIM-2) [nM] | CLB30016 E. coli MITC95 NDM [1] [µM] | IHMA599644 K. pneumoniae MITC95 VIM [2] [µM] | CL5741 S. marcescens MITC95 IMP [3] [µM] | MB9798 MITC95 P. aeruginosa uM Efflux WT [4] [µM] | Efflux ratio [4] | MB9799 MITC95 P. aeruginosa uM Efflux Mutant [5] [µM]
1 | NCCNS(=O)(=O)c1ccc(N2CCC(CN)CC2)c(-c2nnn[nH]2)c1S(N)(=O)=O [Example 35, N1-(2-aminoethyl)-4-(4-(aminomethyl)piperidin-1-yl)-3-(1H-tetrazol-5-yl)benzene-1,2-disulfonamide] | 3.6 | 5.1 | 0.32 | 6.69 | 0.39 | 3.13 | 0.78 | 0.78 | 1.00 | 0.78
2 | NS(=O)(=O)c1c(S(=O)(=O)N[C@@H]2CCNC2)ccc(N2CCN(CCO)CC2)c1-c1nn[nH]n1 [Example 162, (R)-4-(4-(2-hydroxyethyl)piperazin-1-yl)-N1-(pyrrolidin-3-yl)-3-(2H-tetrazol-5-yl)benzene-1,2-disulfonamide] | 1.2 | 2.17 | 2.45 | 6.33 | 0.29 | 1.95 | 0.20 | 2.34 |  | 1.17
3 | NS(=O)(=O)c1c(S(=O)(=O)N[C@@H]2CCNC2)ccc(N2CCC(OCCO)CC2)c1-c1nnn[nH]1 [Example 88, 4-[4-(2-hydroxyethoxy)piperidin-1-yl]-N1-[(3R)-pyrrolidin-3-yl]-3-(1H-tetrazol-5-yl)benzene-1,2-disulfonamide] | 0.08 | 0.13 | 0.19 | 0.97 | 12.50 | 12.50 | 12.50 | 6.25 | 1.00 | 6.25
4 | NS(=O)(=O)c1c(S(=O)(=O)N[C@@H]2CCNC2)ccc(N2CCNC(CO)CC2)c1-c1nn[nH]n1 (stereo partly drawn) [Example 127, 4-(5-(hydroxymethyl)-1,4-diazepan-1-yl)-N1-((R)-pyrrolidin-3-yl)-3-(2H-tetrazol-5-yl)benzene-1,2-disulfonamide] | 18.9 | 33.7 | 1.25 | 24.6 | 0.39 | 0.78 | 0.78 | 3.13 | 4.00 | 0.78
5 | CNCC1CCN(c2ccc(S(=O)(=O)N[C@@H]3CCNC3)c(S(N)(=O)=O)c2-c2nnn[nH]2)CC1 [Example 74, 4-{4-[(methylamino)methyl]piperidin-1-yl}-N1-[(3R)-pyrrolidin-3-yl]-3-(1H-tetrazol-5-yl)benzene-1,2-disulfonamide] | 3 | 6.8 | 0.45 | 6.86 | 0.78 | 3.13 | 1.56 | 1.56 | 2.00 | 0.78
6 | C[C@@H](CN)NS(=O)(=O)c1ccc(N2CCC(O)(CN)CC2)c(-c2nn[nH]n2)c1S(N)(=O)=O [Example 18, (S)-4-(4-(aminomethyl)-4-hydroxypiperidin-1-yl)-N1-(1-aminopropan-2-yl)-3-(2H-tetrazol-5-yl)benzene-1,2-disulfonamide] | 0.43 | 1.48 | 0.65 | 4.8 | 0.78 | 1.56 | 0.78 | 0.78 | 1.00 | 0.78
7 | NC[C@H](N)CNS(=O)(=O)c1ccc(N2CCC(c3c[nH]cn3)CC2)c(-c2nn[nH]n2)c1S(N)(=O)=O [Example 168, (S)-4-(4-(1H-imidazol-4-yl)piperidin-1-yl)-N1-(2,3-diaminopropyl)-3-(2H-tetrazol-5-yl)benzene-1,2-disulfonamide] | 0.17 | 0.24 | 0.07 | 0.48 | 0.39 | 1.56 | 0.78 | 1.56 | 2.00 | 0.78
8 | NC[C@H](N)CNS(=O)(=O)c1ccc(N2CCN(CCO)CC2)c(-c2nnn[nH]2)c1S(N)(=O)=O [Example 49, (S)-N1-(2,3-diaminopropyl)-4-(4-(2-hydroxyethyl)piper-azin-1-yl)-3-(1H-tetrazol-5-yl)benzene-1,2-disulfonamide] | 5.3 | 9.13 | 13.6 | 20.2 | 0.20 | 1.56 | 0.20 | 1.56 | 1.00 | 1.56
9 | NC/C=C1\CCCN(c2ccc(S(=O)(=O)NC[C@H](O)CN)c(S(N)(=O)=O)c2-c2nn[nH]n2)C1 (single isomer, unassigned; isomer b) [Example 206] | 9.21 | 15.1 | 0.23 | 1.52 | 0.78 | 1.56 | 1.56 | 6.25 | 4.00 | 1.56
10 | NC1(CO)CCN(c2ccc(S(=O)(=O)N[C@@H]3CCNC3)c(S(N)(=O)=O)c2-c2nnn[nH]2)C1 (stereo partly drawn) [Example 84, 4-[3-amino-3-(hydroxymethyl)pyrrolidin-1-yl]-N1-[(3R)-pyrrolidin-3-yl]-3-(1H-tetrazol-5-yl)benzene-1,2-disulfonamide] | 19.7 | 33 | 7.27 | 46.9 | 0.78 | 1.56 | 1.56 | 6.25 | 4.00 | 1.56
11 | NS(=O)(=O)c1c(S(=O)(=O)N[C@@H]2CCNC2)ccc(NCC2CCNCC2)c1-c1nn[nH]n1 [Example 183, (R)-4-((piperidin-4-ylmethyl)amino)-N1-(pyrrolidin-3-yl)-3-(2H-tetrazol-5-yl)benzene-1,2-di sulfonamide] | 6.26 | 12.4 | 5.89 | 69.7 | 1.17 | 2.34 | 1.56 | 3.13 | 2.67 | 1.17
12 | CC(=O)N[C@@H]1CCN(c2ccc(S(=O)(=O)N[C@@H]3CCNC3)c(S(N)(=O)=O)c2-c2nnn[nH]2)C1 [Example 95, N-[(3R)-1-{4-[(3R)-pyrrolidin-3-ylsulfamoyl]-3-sulfamoyl-2-(1H-tetrazol-5-yl)phenyl}pyrrolidin-3-yl]acetamide] | 4.31 | 1.55 | 1.42 | 6.09 | 6.25 | 12.50 | 6.25 | 6.25 | 2.00 | 3.13
13 | NS(=O)(=O)c1c(S(=O)(=O)N[C@@H]2CCNC2)ccc(N2CCC(S(N)(=O)=O)CC2)c1-c1nnn[nH]1 [Example 80, N1-[(3R)-pyrrolidin-3-yl]-4-(4-sulfamoylpiperidin-1-yl)-3-(1H-tetrazol-5-yl)benzene-1,2-disulfonamide] | 0.3 | 0.43 | 0.13 | 0.66 | 1.56 | 3.13 | 0.78 | 1.56 | 1.00 | 1.56
